Patent US20070117770A1, “Human ribosomal DNA (rDNA) and ribosomal RNA (rRNA) nucleic acids and uses thereof” (Cylene Pharmaceuticals, Inc., priority 2005, published 2007)

Legend:
Test in all cases: Protein kinase inhibition assay
Type in all cases: biochemical
SAPK2b(h) = SAPK2b(h) (Homo sapiens, UniProt Q15759); details: read-out: percent residual activity of SAPK2b(h)
Description: (§1) Certain compounds were tested for activity in protein kinase inhibition assays. All substrates were dissolved and diluted to working stocks in de-ionized water, apart from histone H1 (10× working stock in 20 mM MOPS pH 7.0), PDKtide (10× working stock in 50 mM Tris pH 7.0) ATF2 (which is typically stored at a 20× working stock in 50 mM Tris pH 7.5, 150 mM NaCl, 0.1 mM EGTA, 0.03% Brij-35, 50% glycerol, 1 mM benzamidine, 0.2 mM PMSF and 0.1% R-mercaptoethanol), KKLNRTLSFAEPG (SEQ ID NO:203) and RRRLSFAEPG (SEQ ID NO:204) (50 mM HEPES pH 7.4) and GGEEEEYFELVKKKK (SEQ ID NO:205) (20 mM MOPS pH 7.0). All kinases were pre-diluted to a 10× working concentration prior to addition into the assay. The composition of the dilution buffer for each kinase is detailed below.
(§2) In a final reaction volume of 25 μl, SAPK2b (h) (5-10 mU) is incubated with 25 mM Tris pH 7.5, 0.02 mM EGTA, 0.33 mg/ml myelin basic protein, 10 mM MgAcetate and [gamma-33P-ATP] (specific activity approx. 500 cpm/pmol, concentration as required). The reaction is initiated by the addition of the MgATP mix. After incubation for 40 minutes at room temperature, the reaction is stopped by the addition of 5 μl of a 3% phosphoric acid solution. 10 μl of the reaction is then spotted onto a P30 filtermat and washed three times for 5 minutes in 75 mM phosphoric acid and once in methanol prior to drying and scintillation counting.

SGK(h) = SGK(h) (Homo sapiens, UniProt O00141); details: read-out: percent residual activity of SGK(h)
Description: as §1
as §2, with “μl, SGK” for “μl, SAPK2b”, “with 8” for “with 25”, “mM MOPS” for “mM Tris”, “pH 7.0, 0.2” for “pH 7.5, 0.02”, “mM EDTA, 30 μM GRPRTSSFAEGKK (SEQ ID NO:226),” for “mM EGTA, 0.33 mg/ml myelin basic protein,”

MLCK(h) = MLCK(h) (Homo sapiens, UniProt Q9H1R3); details: read-out: percent residual activity of MLCK(h)
Description: as §1
In a final reaction volume of 25 μl, MLCK (h) (5-10 mU) is incubated with 8 mM MOPS pH 7.0, 0.2 mM EDTA, 0.5 mM CaCl2, 16 μg/ml calmodulin,250 μM KKLNRTLSFAEPG (SEQ ID NO:203), 10 mM MgAcetate and [gamma-33P-ATP] (specific activity approx. 500 cpm/pmol, concentration as required). The reaction is initiated by the addition of the MgATP mix. After incubation for 40 minutes at room temperature, the reaction is stopped by the addition of 5 μl of a 3% phosphoric acid solution. […]

Fes(h) = Fes(h) (Homo sapiens, UniProt P07332); details: read-out: percent residual activity of Fes(h)
Description: as §1
(§3) In a final reaction volume of 25 μl, Fes (h) (5-10 mU) is incubated with 8 mM MOPS pH 7.0, 0.2 mM EDTA, 0.1 mg/ml poly(Glu, Tyr) 4:1, 10 mM MgAcetate and [y-33P-ATP] (specific activity approx. 500 cpm/pmol, concentration as required). The reaction is initiated by the addition of the MgATP mix. After incubation for 40 minutes at room temperature, the reaction is stopped by the addition of 5 μl of a 3% phosphoric acid solution. 10 μl of the reaction is then spotted onto a Filtermat A and washed three times for 5 minutes in 75 mM phosphoric acid and once in methanol prior to drying and scintillation counting.

TAK1(h) = TAK1(h) (Homo sapiens, UniProt O43318); details: read-out: percent residual activity of TAK1(h)
Description: as §1
as §3, with “TAK1” for “Fes”, “2” for “0.1”, “casein,” for “poly(Glu, Tyr) 4:1,”, “[gamma-33P-ATP]” for “[y-33P-ATP]”, “P30 filtermat” for “Filtermat A”

Fgr(h) = Fgr(h) (Homo sapiens, UniProt P09769); details: read-out: percent residual activity of Fgr(h)
Description: as §1
as §3, with “Fgr” for “Fes”, “[gamma-33P-ATP]” for “[y-33P-ATP]”

SGK(h), sequence (O00141 whole entry): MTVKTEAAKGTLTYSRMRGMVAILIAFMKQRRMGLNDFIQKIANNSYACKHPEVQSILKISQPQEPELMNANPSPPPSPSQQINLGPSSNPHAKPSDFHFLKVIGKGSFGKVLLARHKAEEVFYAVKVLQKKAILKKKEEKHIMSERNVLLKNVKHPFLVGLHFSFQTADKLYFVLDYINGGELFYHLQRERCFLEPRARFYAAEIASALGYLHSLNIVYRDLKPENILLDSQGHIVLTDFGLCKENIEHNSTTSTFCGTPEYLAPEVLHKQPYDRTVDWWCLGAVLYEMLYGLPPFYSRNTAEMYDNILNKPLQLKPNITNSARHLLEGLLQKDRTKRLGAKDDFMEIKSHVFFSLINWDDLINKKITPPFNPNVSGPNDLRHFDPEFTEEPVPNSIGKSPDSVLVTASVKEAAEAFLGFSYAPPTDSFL
SAPK2b(h), sequence (Q15759 whole entry): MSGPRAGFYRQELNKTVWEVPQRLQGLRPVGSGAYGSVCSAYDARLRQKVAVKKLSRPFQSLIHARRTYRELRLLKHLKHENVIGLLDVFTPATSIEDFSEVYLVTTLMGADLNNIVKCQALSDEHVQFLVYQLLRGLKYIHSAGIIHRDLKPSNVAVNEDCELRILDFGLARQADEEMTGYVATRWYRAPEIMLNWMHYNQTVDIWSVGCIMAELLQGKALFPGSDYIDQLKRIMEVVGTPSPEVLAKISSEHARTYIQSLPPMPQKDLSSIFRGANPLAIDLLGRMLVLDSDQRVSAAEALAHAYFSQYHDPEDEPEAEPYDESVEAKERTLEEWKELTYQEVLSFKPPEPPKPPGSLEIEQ
Fes(h), sequence (P07332 whole entry): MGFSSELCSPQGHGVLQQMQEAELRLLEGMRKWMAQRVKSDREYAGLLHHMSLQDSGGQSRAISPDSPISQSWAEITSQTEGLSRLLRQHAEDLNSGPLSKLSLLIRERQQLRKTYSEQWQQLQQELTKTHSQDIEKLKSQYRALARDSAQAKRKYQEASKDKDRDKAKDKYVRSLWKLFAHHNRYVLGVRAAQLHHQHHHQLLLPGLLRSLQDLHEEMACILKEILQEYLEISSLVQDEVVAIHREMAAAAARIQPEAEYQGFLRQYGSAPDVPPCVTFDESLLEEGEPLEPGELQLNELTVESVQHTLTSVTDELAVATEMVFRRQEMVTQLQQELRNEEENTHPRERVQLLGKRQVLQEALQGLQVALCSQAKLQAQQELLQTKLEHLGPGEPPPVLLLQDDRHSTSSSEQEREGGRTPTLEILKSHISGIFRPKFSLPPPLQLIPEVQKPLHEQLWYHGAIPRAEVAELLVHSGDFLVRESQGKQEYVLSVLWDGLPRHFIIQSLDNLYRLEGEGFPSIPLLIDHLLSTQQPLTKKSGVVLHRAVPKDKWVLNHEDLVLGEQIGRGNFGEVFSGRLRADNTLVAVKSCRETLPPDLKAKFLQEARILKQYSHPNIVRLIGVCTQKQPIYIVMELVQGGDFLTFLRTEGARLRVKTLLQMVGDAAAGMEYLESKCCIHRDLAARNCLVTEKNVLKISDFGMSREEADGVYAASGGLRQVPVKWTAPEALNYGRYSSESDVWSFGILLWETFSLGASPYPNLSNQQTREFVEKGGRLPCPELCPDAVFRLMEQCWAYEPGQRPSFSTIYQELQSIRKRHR
Fgr(h), sequence (P09769 whole entry): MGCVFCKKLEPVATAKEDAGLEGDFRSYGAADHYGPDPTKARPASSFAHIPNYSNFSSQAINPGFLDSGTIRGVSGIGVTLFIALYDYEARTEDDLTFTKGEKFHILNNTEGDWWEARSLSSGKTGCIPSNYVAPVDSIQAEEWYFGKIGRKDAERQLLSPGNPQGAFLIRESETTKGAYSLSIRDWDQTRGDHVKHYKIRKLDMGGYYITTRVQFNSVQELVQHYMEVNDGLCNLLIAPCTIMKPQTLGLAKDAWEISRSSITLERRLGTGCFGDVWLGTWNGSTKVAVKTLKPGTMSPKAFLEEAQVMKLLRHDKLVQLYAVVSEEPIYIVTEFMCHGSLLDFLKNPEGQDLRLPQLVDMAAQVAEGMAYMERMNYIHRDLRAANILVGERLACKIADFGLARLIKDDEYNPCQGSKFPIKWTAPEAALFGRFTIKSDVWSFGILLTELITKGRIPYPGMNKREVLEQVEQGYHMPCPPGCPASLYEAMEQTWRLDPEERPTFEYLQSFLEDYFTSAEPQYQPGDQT
TAK1(h), sequence (O43318 1-303 limits assumed): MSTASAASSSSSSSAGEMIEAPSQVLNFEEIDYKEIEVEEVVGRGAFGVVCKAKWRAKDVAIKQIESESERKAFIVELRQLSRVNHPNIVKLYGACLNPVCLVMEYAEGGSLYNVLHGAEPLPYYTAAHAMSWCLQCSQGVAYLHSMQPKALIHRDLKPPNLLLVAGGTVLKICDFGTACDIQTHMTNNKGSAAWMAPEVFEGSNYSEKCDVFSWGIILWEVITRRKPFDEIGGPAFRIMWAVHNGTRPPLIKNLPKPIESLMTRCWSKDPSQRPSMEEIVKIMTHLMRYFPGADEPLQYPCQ

Row | remaining activity at 2.5 µM (SAPK2b(h)) | remaining activity at 2.5 µM (SGK(h)) | remaining activity at 2.5 µM (MLCK(h)) | remaining activity at 2.5 µM (Fes(h)) | remaining activity at 2.5 µM (TAK1(h)) | remaining activity at 2.5 µM (Fgr(h)) | Structure (SMILES)
1 | 70% | 50% | 77% | 82% | 98% | 78% | CN1CCCC1CCNC(=O)c1cn2c3c(c(N4CCC(c5cnccn5)C4)c(F)cc3c1=O)Oc1cc3ccccc3cc1-2 (stereo not drawn) [Compound A-1]
2 | 94% | 103% | 94% | 101% | 95% | 98% | CC(=O)N1CCN(c2ccc3c(=O)c(C(=O)NCCN4CCCC4)c4n(C)c5ccccc5n4c3n2)CC1 [Compound B-1]
